Results taken from patent US9487479B2, “Small molecule inhibitors of N-terminus activation of the androgen receptor” (The University of British Columbia, priority 2008, dated 2016).

Legend:
androgen receptor (AR) = molecular target: T1, androgen receptor (AR) (Homo sapiens, UniProt P10275, T878A); test: PSA (6.1 kb)-luciferase reporter assay in LNCaP cells; assay type: cell-based; conditions: R1881 1 nM, 24 hours; for inhibition of R1881 induction of PSA (6.1)-luciferase: 1 hour pretreatment
T1 construct: endogenous in cells; host or cells: LNCaP human prostate cancer cells
T1 sequence (P10275 1-920 T878A): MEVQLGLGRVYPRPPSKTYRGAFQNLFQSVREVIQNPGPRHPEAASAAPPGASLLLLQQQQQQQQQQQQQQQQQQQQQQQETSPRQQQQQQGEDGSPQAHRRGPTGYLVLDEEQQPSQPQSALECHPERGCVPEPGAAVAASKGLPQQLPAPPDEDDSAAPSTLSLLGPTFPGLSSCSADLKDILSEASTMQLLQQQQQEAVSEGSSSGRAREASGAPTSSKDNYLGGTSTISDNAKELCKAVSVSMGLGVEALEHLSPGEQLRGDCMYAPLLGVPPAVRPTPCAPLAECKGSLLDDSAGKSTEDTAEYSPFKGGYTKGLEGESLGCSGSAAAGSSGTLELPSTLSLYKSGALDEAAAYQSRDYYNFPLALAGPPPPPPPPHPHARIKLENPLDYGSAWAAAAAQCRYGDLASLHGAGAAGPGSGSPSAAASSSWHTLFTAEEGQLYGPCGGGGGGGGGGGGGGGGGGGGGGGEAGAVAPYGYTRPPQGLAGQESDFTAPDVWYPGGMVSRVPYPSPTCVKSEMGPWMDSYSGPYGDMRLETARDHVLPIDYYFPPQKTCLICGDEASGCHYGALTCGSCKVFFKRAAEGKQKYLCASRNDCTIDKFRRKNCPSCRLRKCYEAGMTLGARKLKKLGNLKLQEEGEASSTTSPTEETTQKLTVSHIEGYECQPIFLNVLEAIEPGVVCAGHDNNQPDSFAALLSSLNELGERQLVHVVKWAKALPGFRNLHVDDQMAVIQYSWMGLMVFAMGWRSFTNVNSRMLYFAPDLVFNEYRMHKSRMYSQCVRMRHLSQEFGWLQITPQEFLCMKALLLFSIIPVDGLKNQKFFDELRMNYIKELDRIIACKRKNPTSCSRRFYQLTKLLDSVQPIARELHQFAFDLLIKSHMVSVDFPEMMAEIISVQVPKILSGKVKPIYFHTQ
Experimental: White bars represent no steroid (ethanol control). Wherein glucocorticoid receptor (GR) and progesterone receptor (PR).
The cells were harvested 24 hours later and analyzed for luciferase activity. The data is normalized to protein that was measured using Bradford assay.
Sequence similarities of amino acids in the AR with related human steroid receptors (glucocorticoid receptor (GR) and progesterone receptor (PR)) are significant in some domains such as the DNA-binding-domain (DBD). Although the AR-NTD shares less than 15% homology with the PR and GR, these receptors do interact with some of the same proteins such as SRC-1 (steroid receptor coactivator-1). […] Cells were co-transfected with expression plasmids for full-length hGR and PRβ and the relative reporter (i.e., pGR-Luc or PRE-E1b-Luc reporters). Cells were then treated with ethanol vehicle, dexamethasone (GR), 4-pregnene-3,20 dione (progesterone) (PR) followed by measurement of luciferase activity.
Activation of the endogenous AR was measured in LNCaP human prostate cancer cells by measuring an androgen-responsive reporter containing androgen response elements (AREs). The PSA (6.1 kb)-luciferase reporter gene construct contains several well-characterized AREs and is induced by androgen.

PSA mRNA = test: Androgen-induced PSA mRNA levels in LNCaP cells (qRT-PCR); assay type: cell-based, human; conditions: R1881 1 nM, 16 hours; for inhibition of androgen-induced levels of PSA mRNA: 10 μg/ml, 1 hour pretreatment
Experimental: Levels of PSA mRNA were measured by quantitative real-time (qRT)-PCR and normalized to levels of GAPDH mRNA (housekeeping gene). White bar: no R1881. Black bars: R1881 (1 nM). MNE: mean normalized expression. DMSO (no R1881) was arbitrarily set at 1.0 for each individual experiment. Bars represent the mean±SE from 3 separate experiments using triplicate technical samples from each experiment.
PSA is an androgen-regulated gene containing several well-characterized androgen response elements (AREs) in the enhancer and promoter regions. Levels of PSA mRNA are induced by androgen by a mechanism dependent androgen receptor. To test if sintokamides would also block endogenous gene expression induced by androgen, levels of PSA mRNA were measured in response to the synthetic androgen R1881.

LNCaP cells = test: Androgen-dependent proliferation of LNCaP cells (BrdU incorporation); assay type: cell-based, human; conditions: R1881 0.1 nM, 3 days
Experimental: BrdU incorporation was measured 3 days later to indicate changes in proliferation in response to androgen (see FIG. 3B).

| Compound | inhibition of R1881 induction of PSA (6.1)-luciferase (androgen receptor (AR); 5 μg/ml) | inhibition of androgen-induced levels of PSA mRNA (PSA mRNA) | also measured |
| --- | --- | --- | --- |
| CCC(=O)N[C@H](C[C@H](C)C(Cl)Cl)C(=O)N1C(=O)C=C(OC)[C@@H]1C[C@H](C)C(Cl)Cl [CB1.1, Sintokamide C] | inhibition |  |  |
| CCC(=O)N[C@H](C[C@H](C)C(Cl)(Cl)Cl)C(=O)N1C(=O)C=C(OC)[C@@H]1CC(C)C [CB2.1, Sintokamide E] | inhibition |  |  |
| CCC(=O)N[C@H](C[C@H](C)C(Cl)(Cl)Cl)C(=O)N1C(=O)C=C(OC)[C@@H]1C[C@H](C)C(Cl)(Cl)Cl [CB4.0, Sintokamide B] | inhibition | inhibit |  |
| C[C@]1(O)CC[C@H]2[C@@H]3CCC4=CC(=O)CCC4=C3C=C[C@@]21C [Sintokamide R1881, R1881, reference compound] |  |  | induction of PSA-luciferase activity (androgen receptor (AR)): approximately 6 fold; proliferation over control (BrdU incorporation) (LNCaP cells): increased proliferation over control; induction of levels of PSA mRNA (PSA mRNA): at least 3 fold |
| CCC(=O)N[C@H](CC(C)C)C(=O)N1C(=O)C=C(OC)[C@@H]1CC(C)C [non-chlorinated sintokamide, N—((R)-1-((S)-2-isobutyl-3-methoxy-5-oxo-2,5-dihydro-1H-pyrrol-1-yl)-4-methyl-1-oxopentan-2-yl)propionamide] |  |  | inhibition of R1881 induction of PSA (6.1)-luciferase (androgen receptor (AR); 10 μM): some activity |
| Dysamide A [CB3.0] | some activity | inhibit | inhibition of R1881 induction of PSA (6.1)-luciferase (androgen receptor (AR); 5 μg/ml, listed as Dysimide A): inhibition |
